Data from ChEMBL document CHEMBL5357078, “Synthesis and Structural Optimization of ATG4B Inhibitors for the Attenuation of Autophagy in Glioblastoma” (ACS Med Chem Lett, 2024).
Activity calls are given as the source filed them.

How the values were obtained:
Assay type in all cases: functional, cell-based
[1] = tested on: GSC83; assay: Induction of autophagy in human GSC83 cells assessed as inhibition of ATG4B-induced LC3-1 to LC3-2 conversion incubated for 72 hrs by immunoblotting analysis
[2] = tested on: GSC83; assay: Induction of autophagy in human GSC83 cells assessed as degradation of p62/SQSTM1 substrate incubated for 72 hrs by immunoblotting analysis
[3] = tested on: GSC576; assay: Induction of autophagy in human GSC576 cells assessed as degradation of p62/SQSTM1 substrate incubated for 72 hrs by immunoblotting analysis
[4] = tested on: GSC576; assay: Induction of autophagy in human GSC576 cells assessed as inhibition of ATG4B-induced LC3-1 to LC3-2 conversion incubated for 72 hrs by immunoblotting analysis
[5] = tested on: GSC83; assay: Induction of autophagy in human GSC83 cells assessed as inhibition of sphere formation upto 100 uM incubated for 7 days; details: time 7.0 day
[6] = tested on: GSC576; assay: Induction of autophagy in human GSC576 cells assessed as inhibition of sphere formation upto 100 uM incubated for 7 days; details: time 7.0 day
[7] = tested on: GSC83; assay: Antiproliferative activity against human GSC83 cells assessed as reduction in cell viability upto 100 uM incubated for 72 hrs by celltiter glo luminescent assay
[8] = tested on: GSC576; assay: Antiproliferative activity against human GSC576 cells assessed as reduction in cell viability upto 100 uM incubated for 72 hrs by celltiter glo luminescent assay
[9] = tested on: GSC83; assay: Induction of autophagy in human GSC83 cells assessed as inhibition of sphere formation upto 10 uM incubated for 7 days; details: time 7.0 day
[10] = tested on: GSC576; assay: Induction of autophagy in human GSC576 cells assessed as inhibition of sphere formation upto 10 uM incubated for 7 days; details: time 7.0 day

Measured: Activity

S=C(Nc1ccccn1)c1ccccn1
active: [1] | [2] | [3] | [4] | [5] | [6]

S=C(Nc1ccccn1)c1ccc2ccccc2n1
not listed: [5] | [6]
active: all other assays above
